Measurements taken from patent publication US8921360B2, “Heterobicycle-substituted azolyl benzene fungicides” (priority 2009, dated 2014).

Tests used:
Format in all cases: in vivo
[1] = tested on: Puccinia recondita f. sp. tritici; test: Test C: wheat leaf rust, spray the day after inoculation of wheat seedlings; conditions: 200 ppm; wheat seedlings inoculated, sprayed the following day, rated after 5 days;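 further: Curative spray on infected wheat seedlings with visual rating 5 days later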
Source text: General protocol for preparing test suspensions for Tests A-G: the test compounds were first dissolved in acetone in an amount equal to 11% of the final volume and then suspended at the desired concentration (in ppm) in acetone and purified water (50/50 mix by volume) containing 250 ppm of the surfactant Trem® 014 (polyhydric alcohol esters). The resulting test suspensions were then used in Tests A-G. Spraying a 200 ppm test suspension to the point of run-off on the test plants was the equivalent of a rate of 800 g/ha. Wheat seedlings were inoculated with a spore suspension of Puccinia recondita f. sp. tritici (the causal agent of wheat leaf rust) and incubated in a saturated atmosphere at 20° C. for 24 h. The following day, the test suspension was sprayed to the point of run-off on the wheat seedlings and then moved to a growth chamber at 20° C. for 5 days, after which time disease ratings were visually made. Results for Tests A-G are given in Table A. In the Table, a rating of 100 indicates 100% disease control and a rating of 0 indicates no disease control (relative to the controls). A dash (-) indicates no test results. All results are for 200 ppm except where followed by an “*”, which indicates 40 ppm.

[2] = tested on: Puccinia recondita f sp. tritici; test: Test B: wheat leaf rust, preventive spray on wheat seedlings; conditions: 200 ppm; wheat seedlings sprayed to run-off, inoculated next day, rated after 24 h + 7 days
Source text: General protocol for preparing test suspensions for Tests A-G: the test compounds were first dissolved in acetone in an amount equal to 11% of the final volume and then suspended at the desired concentration (in ppm) in acetone and purified water (50/50 mix by volume) containing 250 ppm of the surfactant Trem® 014 (polyhydric alcohol esters). The resulting test suspensions were then used in Tests A-G. Spraying a 200 ppm test suspension to the point of run-off on the test plants was the equivalent of a rate of 800 g/ha. The test suspension was sprayed to the point of run-off on wheat seedlings. The following day the seedlings were inoculated with a spore suspension of Puccinia recondita f sp. tritici (the causal agent of wheat leaf rust) and incubated in a saturated atmosphere at 20° C. for 24 h, and then moved to a growth chamber at 20° C. for 7 days, after which time disease ratings were visually made. Results for Tests A-G are given in Table A. In the Table, a rating of 100 indicates 100% disease control and a rating of 0 indicates no disease control (relative to the controls). A dash (-) indicates no test results. All results are for 200 ppm except where followed by an “*”, which indicates 40 ppm.

[3] = tested on: Botrytis cinerea; test: Test F: tomato botrytis, preventive spray on tomato seedlings; conditions: 200 ppm; tomato seedlings sprayed to run-off, inoculated next day, rated after 48 h + 3 days
Source text: General protocol for preparing test suspensions for Tests A-G: the test compounds were first dissolved in acetone in an amount equal to 11% of the final volume and then suspended at the desired concentration (in ppm) in acetone and purified water (50/50 mix by volume) containing 250 ppm of the surfactant Trem® 014 (polyhydric alcohol esters). The resulting test suspensions were then used in Tests A-G. Spraying a 200 ppm test suspension to the point of run-off on the test plants was the equivalent of a rate of 800 g/ha. The test suspension was sprayed to the point of run-off on tomato seedlings. The following day the seedlings were inoculated with a spore suspension of Botrytis cinerea (the causal agent of tomato botrytis) and incubated in saturated atmosphere at 20° C. for 48 h, and then moved to a growth chamber at 27° C. for 3 additional days, after which time disease ratings were visually made. Results for Tests A-G are given in Table A. In the Table, a rating of 100 indicates 100% disease control and a rating of 0 indicates no disease control (relative to the controls). A dash (-) indicates no test results. All results are for 200 ppm except where followed by an “*”, which indicates 40 ppm.

[4] = tested on: Septoria tritici; test: Test E: wheat leaf blotch, preventive spray on wheat seedlings; conditions: 200 ppm; wheat seedlings sprayed to run-off, inoculated next day, rated after 48 h + 19 days
Source text: General protocol for preparing test suspensions for Tests A-G: the test compounds were first dissolved in acetone in an amount equal to 11% of the final volume and then suspended at the desired concentration (in ppm) in acetone and purified water (50/50 mix by volume) containing 250 ppm of the surfactant Trem® 014 (polyhydric alcohol esters). The resulting test suspensions were then used in Tests A-G. Spraying a 200 ppm test suspension to the point of run-off on the test plants was the equivalent of a rate of 800 g/ha. The test suspension was sprayed to the point of run-off on wheat seedlings. The following day the seedlings were inoculated with a spore suspension of Septoria tritici (the causal agent of wheat leaf blotch) and incubated in a saturated atmosphere at 24° C. for 48 h, and then moved to a growth chamber at 20° C. for 19 days, after which time disease ratings were visually made. Results for Tests A-G are given in Table A. In the Table, a rating of 100 indicates 100% disease control and a rating of 0 indicates no disease control (relative to the controls). A dash (-) indicates no test results. All results are for 200 ppm except where followed by an “*”, which indicates 40 ppm.

[5] = tested on: Erysiphe graminis f. sp. tritici; test: Test A: wheat powdery mildew, preventive spray on wheat seedlings; conditions: 200 ppm; wheat seedlings sprayed to run-off, inoculated next day, rated after 8 days; 100 = 100% disease control, 0 = no control
Source text: General protocol for preparing test suspensions for Tests A-G: the test compounds were first dissolved in acetone in an amount equal to 11% of the final volume and then suspended at the desired concentration (in ppm) in acetone and purified water (50/50 mix by volume) containing 250 ppm of the surfactant Trem® 014 (polyhydric alcohol esters). The resulting test suspensions were then used in Tests A-G. Spraying a 200 ppm test suspension to the point of run-off on the test plants was the equivalent of a rate of 800 g/ha. The test suspension was sprayed to the point of run-off on wheat seedlings. The following day the seedlings were inoculated with a spore dust of Erysiphe graminis f. sp. tritici, (the causal agent of wheat powdery mildew) and incubated in a growth chamber at 20° C. for 8 days, after which time disease ratings were visually made. Results for Tests A-G are given in Table A. In the Table, a rating of 100 indicates 100% disease control and a rating of 0 indicates no disease control (relative to the controls). A dash (-) indicates no test results. All results are for 200 ppm except where followed by an “*”, which indicates 40 ppm.

[6] = tested on: Septoria nodorum; test: Test D: wheat glume blotch, preventive spray on wheat seedlings; conditions: 200 ppm; wheat seedlings sprayed to run-off, inoculated next day, rated after 48 h + 7 days
Source text: General protocol for preparing test suspensions for Tests A-G: the test compounds were first dissolved in acetone in an amount equal to 11% of the final volume and then suspended at the desired concentration (in ppm) in acetone and purified water (50/50 mix by volume) containing 250 ppm of the surfactant Trem® 014 (polyhydric alcohol esters). The resulting test suspensions were then used in Tests A-G. Spraying a 200 ppm test suspension to the point of run-off on the test plants was the equivalent of a rate of 800 g/ha. The test suspension was sprayed to the point of run-off on wheat seedlings. The following day the seedlings were inoculated with a spore suspension of Septoria nodorum (the causal agent of wheat glume blotch) and incubated in a saturated atmosphere at 20° C. for 48 h, and then moved to a growth chamber at 20° C. for 7 days, after which time disease ratings were visually made. Results for Tests A-G are given in Table A. In the Table, a rating of 100 indicates 100% disease control and a rating of 0 indicates no disease control (relative to the controls). A dash (-) indicates no test results. All results are for 200 ppm except where followed by an “*”, which indicates 40 ppm.

[7] = tested on: Alternaria solani; test: Test G: tomato early blight, preventive spray on tomato seedlings; conditions: 200 ppm; tomato seedlings sprayed to run-off, inoculated next day, rated after 48 h + 5 days
Source text: General protocol for preparing test suspensions for Tests A-G: the test compounds were first dissolved in acetone in an amount equal to 11% of the final volume and then suspended at the desired concentration (in ppm) in acetone and purified water (50/50 mix by volume) containing 250 ppm of the surfactant Trem® 014 (polyhydric alcohol esters). The resulting test suspensions were then used in Tests A-G. Spraying a 200 ppm test suspension to the point of run-off on the test plants was the equivalent of a rate of 800 g/ha. The test suspension was sprayed to the point of run-off on tomato seedlings. The following day the seedlings were inoculated with a spore suspension of Alternaria solani (the causal agent of tomato early blight) and incubated in a saturated atmosphere at 27° C. for 48 h, and then moved to a growth chamber at 24° C. for 5 days, after which time disease ratings were visually made. Results for Tests A-G are given in Table A. In the Table, a rating of 100 indicates 100% disease control and a rating of 0 indicates no disease control (relative to the controls). A dash (-) indicates no test results. All results are for 200 ppm except where followed by an “*”, which indicates 40 ppm.

Row | SMILES | Percentage Disease Control Test C [1] | Percentage Disease Control Test B [2] | Percentage Disease Control Test F [3] | Percentage Disease Control Test E [4] | Percentage Disease Control Test A [5] | Percentage Disease Control Test D [6] | Percentage Disease Control Test G [7]
1 | COC(=O)NCc1cc(-n2ccc(-c3ccc4c(c3)C(=O)CCO4)n2)ccc1F [Compound 18] | 74% | 100% | 79% | 97% | 90% | 99% | 50%
2 | COC(=O)NCc1cc(-c2ccn(-c3ccc4c(c3)OCCO4)n2)ccc1C [Compound 19] | 100% | 100% | 99% | 100% | 100% | 100% | 73%
3 | COC(=O)NCc1cc(-n2ccc(-c3ccc4c(c3)N(C)CCO4)n2)ccc1F [Compound 21] | 98% | 100% | 99% | 96% | 13% | 100% | 99%
4 | COC(=O)NCc1cc(-n2ccc(-c3ccc4c(c3)C(F)CCO4)n2)ccc1F (stereo not drawn) [Compound 22] | 100% | 100% | 33% | 94% | 100% | 100% | 8%
5 | COC(=O)NCc1cc(-n2ccc(-c3ccc4c(c3)OCCO4)n2)ccc1C [Compound 26] | 100% | 100% | 33% | 99% | 100% | 100% | 9%
6 | COC(=O)NCc1cc(-c2ccn(-c3ccc4c(c3)C=C(C#N)CO4)n2)ccc1Cl [Compound 27] | 0% | 99% | 66% | 0% | 0% | 100% | 86%
